Data published in ChEMBL document CHEMBL1147635, “KMI-358 and KMI-370, highly potent and small-sized BACE1 inhibitors containing phenylnorstatine” (Bioorg Med Chem Lett, 2004).
pIC50: −log10 of the molar value. *1 amine or outer side, *2 acyl side, *3 side chain or, on linkers, in order; H or OH if unused. Where a SMILES comes first, the peptide text is derived from it. [ ]: non-standard residue; d: D form. β3hPhe(2R-OH) = O=C([C@H](O)[C@H](Cc1ccccc1)N[*:1])[*:2]; Dap = NC[C@H](N)C(=O)O; CO = O=C([*:1])[*:2]

biological target: T1, Beta-secretase 1 (Homo sapiens, UniProt P56817); assay: Inhibition of Beta-secretase 1 at 2 uM concentration
T1 sequence (P56817 whole entry): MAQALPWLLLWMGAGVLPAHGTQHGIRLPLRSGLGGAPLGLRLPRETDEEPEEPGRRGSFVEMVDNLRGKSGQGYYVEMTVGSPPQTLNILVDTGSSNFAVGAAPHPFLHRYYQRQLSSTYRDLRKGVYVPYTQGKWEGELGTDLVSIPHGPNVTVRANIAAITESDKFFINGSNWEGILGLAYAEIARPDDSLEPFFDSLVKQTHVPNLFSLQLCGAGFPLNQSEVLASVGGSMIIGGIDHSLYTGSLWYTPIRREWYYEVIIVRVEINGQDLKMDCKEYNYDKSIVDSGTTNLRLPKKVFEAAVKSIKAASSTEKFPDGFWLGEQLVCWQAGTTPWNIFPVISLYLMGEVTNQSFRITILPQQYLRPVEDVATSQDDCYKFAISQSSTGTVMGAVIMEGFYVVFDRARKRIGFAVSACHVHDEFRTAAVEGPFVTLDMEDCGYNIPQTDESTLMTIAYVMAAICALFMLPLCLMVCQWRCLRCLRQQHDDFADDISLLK

Row | Structure (SMILES) | inhibition [%]
1 | CC(C)C[C@H](NC(=O)[C@@H](NC(=O)[C@@H](N)CCC(=O)O)C(C)C)C(=O)N[C@@H](Cc1ccccc1)[C@@H](O)C(=O)Nc1cccc(C(=O)O)c1 (mixture of isomers) | 82
2 | CC(C)C[C@H](NC(=O)[C@@H](NC(=O)[C@@H](N)CCC(=O)O)C(C)C)C(=O)N[C@@H](Cc1ccccc1)[C@@H](O)C(=O)N[C@@H](CC(=O)O)C(=O)O (HELM PEPTIDE1{E.V.L.[O=C([C@H](O)[C@H](Cc1ccccc1)N[*:1])[*:2]].D}$$$$V2.0) | 61
3 | CC(C)C[C@H](NC(=O)[C@@H](NC(=O)[C@@H](N)CCC(=O)O)C(C)C)C(=O)N[C@@H](Cc1ccccc1)[C@@H](O)C(=O)NCc1ccccc1 | 30
4 | CC(C)C[C@H](NC(=O)[C@@H](NC(=O)[C@@H](N)CCC(=O)O)C(C)C)C(=O)N[C@@H](Cc1ccccc1)[C@@H](O)C(=O)Nc1ccc(C(=O)O)cc1 | 79
5 | C[C@H](NC(=O)[C@H](CC(=O)O)NC(=O)[C@H](O)[C@@H](N)Cc1ccccc1)C(=O)N[C@@H](CCC(=O)O)C(=O)N[C@@H](Cc1ccccc1)C(=O)O (HELM PEPTIDE1{[N[C@@H](Cc1ccccc1)[C@@H](O)C(=O)[*:2]].D.A.E.F}$$$$V2.0) | < 20
6 | CC(C)C[C@H](NC(=O)[C@@H](NC(=O)[C@@H](N)CCC(=O)O)C(C)C)C(=O)N[C@@H](Cc1ccccc1)[C@@H](O)C(=O)Nc1cc(C(=O)O)cc(C(=O)O)c1 | > 90
7 | CC(C)C[C@H](NC(=O)[C@@H](NC(=O)[C@@H](N)CNC(=O)O)C(C)C)C(=O)N[C@@H](Cc1ccccc1)[C@@H](O)C(=O)N[C@@H](CC(=O)O)C(=O)N[C@@H](C)C(=O)N[C@@H](CCC(=O)O)C(=O)O (H-[Dap](CO)VL[β3hPhe(2R-OH)]DAE-OH) | > 90
8 | CC(C)C[C@H](NC(=O)[C@@H](NC(=O)[C@@H](N)CCCC(=O)O)C(C)C)C(=O)N[C@@H](Cc1ccccc1)[C@@H](O)C(=O)N[C@@H](CC(=O)O)C(=O)N[C@@H](C)C(=O)N[C@@H](CCC(=O)O)C(=O)O (HELM PEPTIDE1{[N[C@@H](CCCC(=O)O)C(=O)[*:2]].V.L.[O=C([C@H](O)[C@H](Cc1ccccc1)N[*:1])[*:2]].D.A.E}$$$$V2.0) | 43
9 | CC(C)C[C@H](NC(=O)[C@@H](NC(=O)[C@@H](N)CCC(=O)O)C(C)C)C(=O)N[C@@H](Cc1ccccc1)[C@@H](O)C(=O)NCc1cccc(C(=O)O)c1 | 64
10 | CC(C)C[C@H](NC(=O)[C@@H](NC(=O)[C@@H](N)CCC(=O)O)C(C)C)C(=O)N[C@@H](Cc1ccccc1)[C@@H](O)C(=O)N[C@@H](CC(=O)O)C(=O)N[C@@H](C)C(=O)O (HELM PEPTIDE1{E.V.L.[O=C([C@H](O)[C@H](Cc1ccccc1)N[*:1])[*:2]].D.A}$$$$V2.0) | 46
11 | CC(C)C[C@H](NC(=O)[C@@H](NC(=O)[C@@H](N)CCC(N)=O)C(C)C)C(=O)N[C@@H](Cc1ccccc1)[C@@H](O)C(=O)N[C@@H](CC(=O)O)C(=O)N[C@@H](C)C(=O)N[C@@H](CCC(=O)O)C(=O)O (HELM PEPTIDE1{Q.V.L.[O=C([C@H](O)[C@H](Cc1ccccc1)N[*:1])[*:2]].D.A.E}$$$$V2.0) | < 20
12 | CC(C)C[C@H](NC(=O)[C@@H](NC(=O)[C@@H](N)CCC(=O)O)C(C)C)C(=O)N[C@@H](Cc1ccccc1)[C@@H](O)C(=O)N[C@@H](CC(=O)O)C(=O)N[C@@H](C)C(=O)N[C@@H](CCC(=O)O)C(=O)NCC(=O)O (HELM PEPTIDE1{E.V.L.[O=C([C@H](O)[C@H](Cc1ccccc1)N[*:1])[*:2]].D.A.E.G}$$$$V2.0) | 65
13 | CC(C)C[C@H](NC(=O)[C@@H](NC(=O)CCCC(=O)O)C(C)C)C(=O)N[C@@H](Cc1ccccc1)[C@@H](O)C(=O)N[C@@H](CC(=O)O)C(=O)N[C@@H](C)C(=O)N[C@@H](CCC(=O)O)C(=O)O (HELM PEPTIDE1{[O=C(O)CCCC(=O)[*:2]].V.L.[O=C([C@H](O)[C@H](Cc1ccccc1)N[*:1])[*:2]].D.A.E}$$$$V2.0) | < 20
14 | CC(C)C[C@H](NC(=O)[C@@H](NC(=O)[C@@H](N)CCC(=O)O)C(C)C)C(=O)N[C@@H](Cc1ccccc1)[C@@H](O)C(=O)O (mixture of isomers) | 34
15 | CC(C)C[C@H](NC(=O)[C@@H](NC(=O)[C@@H](N)CCC(=O)O)C(C)C)C(=O)N[C@@H](Cc1ccccc1)[C@@H](O)C(=O)NCc1ccc(C(=O)O)cc1 | 52

Second part, the compound after the results:

Row | inhibition [%] | Structure (SMILES)
16 | 60 | CC(C)C[C@H](NC(=O)[C@@H](NC(=O)[C@@H](N)CCC(=O)O)C(C)C)C(=O)N[C@@H](Cc1ccccc1)[C@@H](O)C(=O)N[C@@H](CC(=O)O)C(=O)N[C@@H](C)C(=O)N[C@@H](CCC(=O)O)C(=O)O (HELM PEPTIDE1{E.V.L.[O=C([C@H](O)[C@H](Cc1ccccc1)N[*:1])[*:2]].D.A.E}$$$$V2.0)
17 | < 20 | CC(C)C[C@H](NC(=O)[C@@H](NC(=O)CN)C(C)C)C(=O)N[C@@H](Cc1ccccc1)[C@@H](O)C(=O)N[C@@H](CC(=O)O)C(=O)N[C@@H](C)C(=O)N[C@@H](CCC(=O)O)C(=O)N[C@@H](Cc1ccccc1)C(=O)O (HELM PEPTIDE1{G.V.L.[O=C([C@H](O)[C@H](Cc1ccccc1)N[*:1])[*:2]].D.A.E.F}$$$$V2.0)
18 | 56 | CC(C)C[C@H](NC(=O)[C@@H](NC(=O)[C@@H](N)CCC(=O)O)C(C)C)C(=O)N[C@@H](Cc1ccccc1)[C@@H](O)C(=O)N[C@@H](CC(=O)O)C(=O)NC(C)C(=O)NCC(=O)N[C@@H](Cc1ccccc1)C(=O)O (single isomer, unassigned)
19 | < 90 | CC(C)C[C@H](NC(=O)[C@@H](NC(=O)[C@@H](N)CCC(=O)O)C(C)C)C(=O)N[C@@H](Cc1ccccc1)[C@@H](O)C(=O)N[C@@H](CC(=O)O)C(=O)N[C@@H](C)C(=O)N[C@@H](CCC(=O)O)C(=O)N[C@@H](Cc1ccccc1)C(=O)O (HELM PEPTIDE1{E.V.L.[O=C([C@H](O)[C@H](Cc1ccccc1)N[*:1])[*:2]].D.A.E.F}$$$$V2.0)
20 | < 20 | CC(C)C[C@H](NC(=O)[C@@H](NC(=O)[C@@H](N)CC(=O)O)C(C)C)C(=O)N[C@@H](Cc1ccccc1)[C@@H](O)C(=O)N[C@@H](CC(=O)O)C(=O)N[C@@H](C)C(=O)N[C@@H](CCC(=O)O)C(=O)O (HELM PEPTIDE1{D.V.L.[O=C([C@H](O)[C@H](Cc1ccccc1)N[*:1])[*:2]].D.A.E}$$$$V2.0)
21 | < 20 | CC(C)C[C@H](NC(=O)[C@@H](N)C(C)C)C(=O)N[C@@H](Cc1ccccc1)[C@@H](O)C(=O)N[C@@H](CC(=O)O)C(=O)N[C@@H](C)C(=O)N[C@@H](CCC(=O)O)C(=O)N[C@@H](Cc1ccccc1)C(=O)O (HELM PEPTIDE1{V.L.[O=C([C@H](O)[C@H](Cc1ccccc1)N[*:1])[*:2]].D.A.E.F}$$$$V2.0)
22 | < 20 | CC(C)C[C@H](NC(=O)CNC(=O)[C@@H](N)CCC(=O)O)C(=O)N[C@@H](Cc1ccccc1)C(O)C(=O)N[C@@H](CC(=O)O)C(=O)NC(C)C(=O)N[C@@H](CCC(=O)O)C(=O)N[C@@H](Cc1ccccc1)C(=O)O (single isomer, unassigned)
23 | < 20 | CC(C)[C@H](NC(=O)[C@@H](N)CCC(=O)O)C(=O)NCC(=O)N[C@@H](Cc1ccccc1)[C@@H](O)C(=O)N[C@@H](CC(=O)O)C(=O)N[C@@H](C)C(=O)N[C@@H](CCC(=O)O)C(=O)N[C@@H](Cc1ccccc1)C(=O)O (HELM PEPTIDE1{E.V.G.[O=C([C@H](O)[C@H](Cc1ccccc1)N[*:1])[*:2]].D.A.E.F}$$$$V2.0)
24 | < 20 | CC(C)C[C@H](N)C(=O)N[C@@H](Cc1ccccc1)[C@@H](O)C(=O)N[C@@H](CC(=O)O)C(=O)N[C@@H](C)C(=O)N[C@@H](CCC(=O)O)C(=O)N[C@@H](Cc1ccccc1)C(=O)O (HELM PEPTIDE1{L.[O=C([C@H](O)[C@H](Cc1ccccc1)N[*:1])[*:2]].D.A.E.F}$$$$V2.0)
25 | 54 | CC(C)C[C@H](NC(=O)[C@@H](NC(=O)[C@@H](N)CCC(=O)O)C(C)C)C(=O)N[C@@H](Cc1ccccc1)[C@@H](O)C(=O)NCC(=O)N[C@@H](C)C(=O)N[C@@H](CCC(=O)O)C(=O)N[C@@H](Cc1ccccc1)C(=O)O (HELM PEPTIDE1{E.V.L.[O=C([C@H](O)[C@H](Cc1ccccc1)N[*:1])[*:2]].G.A.E.F}$$$$V2.0)
26 | 73 | CC(C)C[C@H](NC(=O)[C@@H](NC(=O)[C@@H](N)CCC(=O)O)C(C)C)C(=O)N[C@@H](Cc1ccccc1)[C@@H](O)C(=O)N[C@@H](CC(=O)O)C(=O)NCC(=O)N[C@@H](CCC(=O)O)C(=O)N[C@@H](Cc1ccccc1)C(=O)O (HELM PEPTIDE1{E.V.L.[O=C([C@H](O)[C@H](Cc1ccccc1)N[*:1])[*:2]].D.G.E.F}$$$$V2.0)

biological target: T1, Beta-secretase 1; assay: Inhibitory concentration of compound against Beta-secretase 1 was evaluated

Row | pIC50 | Structure (SMILES)
27 | 7.26 | CC(C)C[C@H](NC(=O)[C@@H](NC(=O)[C@@H](N)CCC(=O)O)C(C)C)C(=O)N[C@@H](Cc1ccccc1)[C@@H](O)C(=O)Nc1cc(C(=O)O)cc(C(=O)O)c1
28 | 7.08 | CC(C)C[C@H](NC(=O)[C@@H](NC(=O)[C@@H](N)CNC(=O)O)C(C)C)C(=O)N[C@@H](Cc1ccccc1)[C@@H](O)C(=O)N[C@@H](CC(=O)O)C(=O)N[C@@H](C)C(=O)N[C@@H](CCC(=O)O)C(=O)O (H-[Dap](CO)VL[β3hPhe(2R-OH)]DAE-OH)
29 | 7.80 | CC(C)C[C@H](NC(=O)[C@@H](NC(=O)[C@@H](N)CNC(=O)O)C(C)C)C(=O)N[C@@H](Cc1ccccc1)[C@@H](O)C(=O)Nc1cccc(C(=O)O)c1
30 | 8.47 | CC(C)C[C@H](NC(=O)[C@@H](NC(=O)[C@@H](N)CNC(=O)O)C(C)C)C(=O)N[C@@H](Cc1ccccc1)[C@@H](O)C(=O)Nc1cc(C(=O)O)cc(C(=O)O)c1
